# Reference: article PMC10033419, “Blocking NS3–NS4B interaction inhibits dengue virus in non-human primates” (Nature, 2023)
# Columns and labels:
# [1] = in vitro; details: dog
# [2] = test system: DENV-1 G1 Djibouti; test: DENV genotype panel RT-qPCR, Vero E6; assay type: cell-based; details: Dengue virus, DENV1, Vero C1008; mean ± SD
# Procedure: (§1) A total of 20 DENV strains, representing the available genotypes within the four DENV serotypes, were used in the in vitro genotype panel, from which 19 viruses were described previously in ref. [3] and one additional virus, DENV-1/45AZ5 (ref. [54]), was added.
# (§2) A potential toxic effect on host cells was tested in parallel, while omitting virus infection, using the MTS/PMS method (Promega) for Vero cells, or by high-content imaging for C6/36 cells, as described previously. […] RT–qPCR data were analysed using the QuantStudio 12K Flex software (v.1.2.3) or SDS v.1.2 Applied Biosystems software. Inhibition values for antiviral molecules were plotted using KaleidaGraph plotting software (v.4.03, Synergy Software).
# [3] = test system: DENV-2 Sylvatic Malaysia; test: DENV genotype panel RT-qPCR, Vero E6; assay type: cell-based; details: Dengue virus, DENV2, Vero C1008
# Procedure: as §1, §2
# [4] = test system: DENV-1 G5 France - Toulon; test: DENV genotype panel RT-qPCR, Vero E6; assay type: cell-based; details: Dengue virus, DENV1, Vero C1008
# Procedure: as §1, §2
# [5] = test system: DENV-3 G2 Thailand; test: DENV genotype panel RT-qPCR, Vero E6; assay type: cell-based; details: Dengue virus, DENV3, Vero C1008
# Procedure: as §1, §2
# [6] = test system: DENV-3 G3 Bolivia; test: DENV genotype panel RT-qPCR, Vero E6; assay type: cell-based; details: Dengue virus, DENV3, Vero C1008
# Procedure: as §1, §2
# [7] = test system: DENV-2 Asian America Martinique; assay type: cell-based; details: T108I in NS4B
smiles,measurement,setting,value
COc1cc(N[C@H](C(=O)c2c[nH]c3ccc(OC(F)(F)F)cc23)c2ccc(Cl)cc2OC)cc(S(C)(=O)=O)c1 [JNJ-1802],CC90,[1],5.38 µM
same,CC50,[1]; CC50,2600 nM
same,CC50,"[1]; CC50, Mean",2630 nM
same,EC50,[2],0.207 ± 0.056 nM
same,EC90,[2],0.83 ± 0.37 nM
same,EC50,[3],0.0634 ± 0.0022 nM
same,EC90,[3],0.265 ± 0.029 nM
same,EC90,[4],1.02 ± 0.68 nM
same,EC50,[4]; one of three values below threshold,< 0.23 nM
same,EC50,[5],1.68 ± 0.24 nM
same,EC90,[5],5.8 ± 3 nM
same,EC50,[6],0.9 ± 1.1 nM
same,EC90,[6],6.71 ± 0.66 nM
same,EC50,[7],0.8 ± 0.7 nM
same,EC90,[7],1.88 ± 1.37 nM
